Source: patent US20250382346A1, “NEURONAL PROMOTERS AND USES THEREOF” (priority 2023, published 2025)

Key:
hM3Dq = biological target: T1, hM3Dq (Homo sapiens, UniProt P20309, A239G/Y149C); assay: Chemogenetic manipulation of BG direct pathway in mice with hM3Dq: rotations, nigral c-Fos; format: in vivo; details: for c-Fos+ cells in the SNr: AAV8R12-G88P3-HA-hM3Dq; for rotation behavior (FIG. 6C), mean±SEM: control vector AAV8R12-G88P3-EYFP, n=5, no effect
T1 construct: expressed in transfected cells; host or cells: neurons of C57BL/6J mice or of macaques, transduced in vivo by nigral AAV8R12-G88P3-HA-hM3Dq
T1 sequence (P20309 whole entry Y149C/A239G): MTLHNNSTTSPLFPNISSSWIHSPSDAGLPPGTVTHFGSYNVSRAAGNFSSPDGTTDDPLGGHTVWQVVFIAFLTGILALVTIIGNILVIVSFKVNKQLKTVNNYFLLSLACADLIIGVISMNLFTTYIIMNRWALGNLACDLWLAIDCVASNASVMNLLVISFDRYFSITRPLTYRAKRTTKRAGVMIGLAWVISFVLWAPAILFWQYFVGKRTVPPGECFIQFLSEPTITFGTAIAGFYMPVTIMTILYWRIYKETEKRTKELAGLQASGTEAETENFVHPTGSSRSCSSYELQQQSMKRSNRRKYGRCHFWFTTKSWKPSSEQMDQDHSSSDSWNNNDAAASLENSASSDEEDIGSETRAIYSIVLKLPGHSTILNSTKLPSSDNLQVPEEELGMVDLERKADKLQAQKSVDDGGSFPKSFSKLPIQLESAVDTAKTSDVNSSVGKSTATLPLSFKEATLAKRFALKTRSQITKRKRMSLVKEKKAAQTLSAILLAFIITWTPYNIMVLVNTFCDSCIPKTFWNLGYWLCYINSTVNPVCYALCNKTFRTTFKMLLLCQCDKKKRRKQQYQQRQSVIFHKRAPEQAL
Procedure: (§1) Mice were anesthetized with sodium pentobarbital (Nembutal; 80 mg/kg, i.p.), and then placed into a stereotaxic device (KOPF). Eye cream was applied on both corneas to avoid dehydration. The skull above the targeted areas was thinned with a dental drill and carefully removed. Injections were conducted with a 10 μL syringe connected to a 33-Gauge needle (Neuros; Hamilton), using a microsyringe pump (Legato 130, KD Scientific). A total volume of 200 nL virus was injected into the SNr at a speed of 20 nL/min. The coordinates for the SNr were 3.4 mm posterior, 1.3 mm lateral, 4.8 mm ventral to the bregma.
(§2) Mice that were used in the behavioral experiments were then implanted with guide cannulas (KOPF) unilaterally aiming at the dorsomedial striatum (0.5 mm anterior, 1.5 mm lateral, 3.5 mm ventral to the bregma). The cannulas were fixed to the skull with dental cement. Stainless steel obturators were inserted into the guide cannulas and were replaced every other day to maintain the patency until infusions were made. Mice were allowed to recover from the surgery for at least 3 weeks before further studies.
Labeling specificity of the retrograde AAV tracers was examined. […] To explore the functional features of retrograde AAV-labeled cells, AAV8R12-G88P3-HA-hM3Dq, which enables neuronal excitation upon clozapine N-oxide (CNO) administration, were injected into the right SNr of C57BL/6J mice. […] Based on the observed infection patterns of retrograde AAV, it was reasoned that the ipsiversive rotations were a consequence of the activation of the right SNr, which is a major inhibitory output center of the BG and was labeled by the locally injected AAV.
(§3) Mice were individually handled for 10-20 seconds per day for at least 5 days to habituate them to the experimenter. The open field test was conducted in a test apparatus (50 cm×50 cm×50 cm) with an HD digital camera (Sony) positioned above the arena. On day one, mice were habituated to the apparatus for 10 minutes. On day 2, mice were administrated saline (0.1 mL i.p. or 200 nL intracranially [i.e.] through the guide cannulas). On day 3, mice were administrated with Clozapine-N-oxide (CNO, Hello Bio, HB1807; 0.3 mg/kg i.p. or 200 nL at 100 μM i.e.). All behavioral tests were conducted 30 minutes after injection. During the test, mice were allowed to freely explore the apparatus for 10 minutes. The behavioral data were analyzed with ANY-maze software (Stoelting Co.).

rM3Ds = biological target: T2, rM3Ds (Rattus norvegicus, UniProt P08483, A177S/A238G/A489L/DEL261-437/DEL441-478/E258S/I253V/I483M/INS256[…]/K178L/K182A/K255R/K484R/K486H/L173F/L482A/M480V/R171S/R176Q/R179M/S481M/T174R/T181R/T257A/Y148C); assay: Chemogenetic manipulation of BG direct pathway in mice with rM3Ds: rotations, nigral c-Fos; format: in vivo; design: 2A-EYFP (C); expressed in transfected cells; host or cells: neurons (striatal D1-MSNs) of mice or cynomolgus macaques, transduced in vivo by nigral AAV8R12-G88P7-rM3Ds-2A-EYFP; details: for contraversive rotations (FIG. 7A), mean±SEM: AAV8R12-G88P7-rM3Ds-2A-EYFP nigral, n=8; for rotation behavior (FIG. 7C), mean±SEM: control vector AAV8R12-G88P7-EYFP, n=5, no effect
T2 sequence (P08483 with tags, fused parts or gaps Y148C/R171S/L173F/T174R/R176Q/A177S/K178L/R179M/T181R/K182A/A238G/I253V/K255R/INS256[…]/T257A/E258S/DEL261-437/DEL441-478/M480V/S481M/L482A/I483M/K484R/K486H/A489L): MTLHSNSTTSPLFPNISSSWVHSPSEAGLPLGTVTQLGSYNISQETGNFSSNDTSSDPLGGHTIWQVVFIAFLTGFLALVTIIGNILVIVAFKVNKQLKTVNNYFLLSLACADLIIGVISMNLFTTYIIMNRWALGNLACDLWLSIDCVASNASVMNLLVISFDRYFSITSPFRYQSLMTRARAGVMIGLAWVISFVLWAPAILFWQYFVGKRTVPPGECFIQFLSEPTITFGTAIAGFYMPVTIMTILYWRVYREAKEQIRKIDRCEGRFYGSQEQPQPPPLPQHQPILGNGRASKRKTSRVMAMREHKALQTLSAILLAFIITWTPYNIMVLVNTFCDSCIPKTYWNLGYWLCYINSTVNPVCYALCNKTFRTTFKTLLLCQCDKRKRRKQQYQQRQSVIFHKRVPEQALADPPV
Procedure: as §1, §2
To further optimize the system, an alternative chemogenetic effector that would potentially allow specific manipulation of the direct pathway compatible with systemic CNO infusions needed to be identified. […]. A different chemogenetic effector, rM3Ds, which uses cAMP as the second messenger and can effectively activate striatal MSNs, was used to avoid the activation of SNr neurons upon systemic CNO administration.
Together, these findings confirm that the approach we developed is a durable solution for selective activity modulation of D1-MSNs and the BG direct pathway.
as §3

C[N+]1([O-])CCN(C2=Nc3cc(Cl)ccc3Nc3ccccc32)CC1 [CNO, Clozapine-N-oxide]
rotations (FIG. 6A), mean±SEM; CNO induced ipsiversive rotations (hM3Dq; AAV8R12-G88P3-HA-hM3Dq nigral, CNO i.p., saline 45.25±4.128, n=8): 87.84±4.666 | rotations (FIG. 6A), mean±SEM; CNO induced contraversive rotations (hM3Dq; AAV8R12-G88P3-HA-hM3Dq nigral, CNO intracranial into dorsomedial striatum, saline 49.63±5.879, n=8): 15.08±3.435 | c-Fos+ cells in the SNr (hM3Dq; intracranial CNO infusion): No significant changes in the number of nigral c-Fos+ cells | c-Fos+ cells in the SNr (hM3Dq; intraperitoneal CNO): significant increase in c-Fos+ cells in the right SNr | rotation behavior (FIG. 6C), mean±SEM (hM3Dq; CNO i.p., saline 47.08±10.5): 44.72±10.89 | rotation behavior (FIG. 6C), mean±SEM (hM3Dq; CNO intracranial, saline 54.22±8.766): 61.39±5.774 | contraversive rotations (FIG. 7A), mean±SEM (rM3Ds; CNO i.p., saline 45.95±4.972): 80.05±5.168 | contraversive rotations (FIG. 7A), mean±SEM (rM3Ds; CNO intracranial, saline 58.31±4.742): 80.77±4.187 | c-Fos+ cells in the SNr (rM3Ds; AAV8R12-G88P7-rM3Ds-2A-EYFP, intraperitoneal and intracranial CNO): did not increase the number of c-Fos+ cells in the SNr | rotation behavior (FIG. 7C), mean±SEM (rM3Ds; CNO i.p., saline 48.68±7.203): 46.88±7.497 | rotation behavior (FIG. 7C), mean±SEM (rM3Ds; CNO intracranial, saline 41.11±12.73): 34.55±7.536
